Structures are written as SMILES.

Experimental findings from paper PMC5823474, “A natural agonist of mosquito TRPA1 from the medicinal plant Cinnamosma fragrans that is toxic, antifeedant, and repellent to the yellow fever mosquito Aedes aegypti” (PLoS Neglected Tropical Diseases, 2018) are described below.

The target of this assay is T1, AgTRPA1 (Transient Receptor Potential A1) (Anopheles gambiae, UniProt B3G3I7).
T1 construct: AgTRPA1 cRNA expressed in Xenopus laevis oocytes
T1 sequence (B3G3I7 1-1248): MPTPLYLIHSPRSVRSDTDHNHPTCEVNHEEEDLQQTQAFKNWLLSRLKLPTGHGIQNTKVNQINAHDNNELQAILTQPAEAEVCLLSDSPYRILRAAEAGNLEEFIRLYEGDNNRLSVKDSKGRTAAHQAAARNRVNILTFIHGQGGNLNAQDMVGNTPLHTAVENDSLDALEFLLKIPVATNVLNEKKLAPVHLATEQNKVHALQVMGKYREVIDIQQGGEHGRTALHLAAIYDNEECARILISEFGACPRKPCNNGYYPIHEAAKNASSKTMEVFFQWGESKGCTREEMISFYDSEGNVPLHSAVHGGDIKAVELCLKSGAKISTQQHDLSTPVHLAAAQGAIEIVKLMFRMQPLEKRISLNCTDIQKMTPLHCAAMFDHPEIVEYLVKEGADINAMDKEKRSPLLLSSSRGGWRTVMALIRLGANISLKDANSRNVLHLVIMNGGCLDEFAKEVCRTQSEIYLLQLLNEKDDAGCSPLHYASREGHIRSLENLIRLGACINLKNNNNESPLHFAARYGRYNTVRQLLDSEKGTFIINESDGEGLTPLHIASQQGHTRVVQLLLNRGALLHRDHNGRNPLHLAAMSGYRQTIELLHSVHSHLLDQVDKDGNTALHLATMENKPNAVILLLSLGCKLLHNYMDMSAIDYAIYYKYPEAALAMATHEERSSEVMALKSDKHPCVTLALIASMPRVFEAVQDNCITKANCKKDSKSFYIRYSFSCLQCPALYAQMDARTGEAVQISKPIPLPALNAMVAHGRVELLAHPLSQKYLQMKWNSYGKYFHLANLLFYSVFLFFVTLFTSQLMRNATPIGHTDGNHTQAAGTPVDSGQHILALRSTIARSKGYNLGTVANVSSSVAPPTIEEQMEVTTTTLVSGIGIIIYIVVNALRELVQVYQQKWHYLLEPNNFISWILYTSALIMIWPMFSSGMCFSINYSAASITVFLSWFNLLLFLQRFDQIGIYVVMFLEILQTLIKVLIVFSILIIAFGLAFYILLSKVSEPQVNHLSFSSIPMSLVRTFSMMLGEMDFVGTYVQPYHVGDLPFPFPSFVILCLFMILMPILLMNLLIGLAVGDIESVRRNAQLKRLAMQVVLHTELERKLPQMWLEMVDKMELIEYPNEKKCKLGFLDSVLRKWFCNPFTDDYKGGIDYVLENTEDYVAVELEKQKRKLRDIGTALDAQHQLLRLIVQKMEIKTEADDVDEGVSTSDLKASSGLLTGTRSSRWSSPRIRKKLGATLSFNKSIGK
The assay is described as follows: two-electrode voltage clamp in Xenopus oocytes, weaker agonist at […]; no response in H2O-injected oocytes. In kind it is cell-based. (In two-electrode clamp one electrode senses voltage and the other passes current.)

As to `CC(=O)O[C@@H]1C=C(C2O[C@@H]3O[C@@H](O)C4=C[C@@H](OC(C)=O)[C@H]5C(C)(C)CCC[C@]5(C)[C@]43O2)[C@](O)(C=O)[C@@]2(C)CCCC(C)(C)[C@H]12` (stereo partly shown) [CFRAG, cinnafragrin A], the “two-electrode voltage clamp in Xenopus oocytes, weaker agonist at 10 μM; no resp” value was “CFRAG produced a similar response, but the peak Im elicited by CDIAL”.
